Measured values: patent publication US20230141403A1 (Hoffmann-La Roche Inc., priority 2020, published 2023)
Structures can show the parent of a compound that is named as a salt. Where two headings read alike, the source gives them in different places.

Tested on: Acinetobacter baumannii ATCC17961
Test: Antimicrobial susceptibility testing: 90% growth inhibitory concentration (IC90) determination
Format: cell-based
Protocol: Antimicrobial Susceptibility Testing:
90% Growth Inhibitory Concentration (IC90) Determination
The in vitro antimicrobial activity of the compounds was determined according to the following procedure:
The assay used a 10-points Iso-Sensitest broth medium to measure quantitatively the in vitro activity of the compounds against Acinetobacter baumannii ATCC17961 or ATCC17978.
Stock compounds in DMSO were serially twofold diluted (e.g. range from 50 to 0.097 μM final concentration) in 384 wells microtiter plates and inoculated with 49 μl the bacterial suspension in Iso-Sensitest medium to have a final cell concentration of ˜5×10^(5) CFU/ml in a final volume/well of 50 ul/well. Microtiter plates were incubated at 35±2° C.
Bacterial cell growth was determined with the measurement of optical density at λ=600 nm each 20 minutes over a time course of 16h. Growth inhibition was calculated during the logarithmic growth of the bacterial cells with determination of the concentration inhibiting 50% (IC50) and 90% (IC90) of the growth.
Table 2 provides the 90% growth inhibitory concentrations (IC90) in micromoles per liter of the compounds of present invention obtained against the strain Acinetobacter baumannii ATCC17961.

[1] = Acinetobacter baumannii, ATCC17961, 16 h, 90% growth inhibitory concentration, Iso-Sensitest broth, optical density at 600 nm over 16h, 35±2° C., read-out: AB ATCC 17961 IC90
[2] = Acinetobacter baumannii, ATCC17961, 16 h, read-out: AB ATCC 17961 IC90 (uM)
[3] = 90% growth inhibitory concentration, Iso-Sensitest broth, optical density at 600 nm over 16h, 35±2° C., read-out: AB ATCC 17961 IC90

Compound | IC90 [1] | further results
COc1ccc(-c2cnc3c(Nc4ccc(S(=O)(=O)N5CCN(CCCN(C)C)CC5)c(Cl)c4)nccn23)c(F)c1F [Example 96, N-(3-chloro-4-((4-(3-(dimethylamino)propyl)piperazin-1-yl)sulfonyl)phenyl)-3-(2,3-difluoro-4-methoxyphenyl)imidazo[1,2-a]pyrazin-8-amine] |  | IC90 [2]: 0.2 µM
NCCOCC1CC(=O)N(c2ccc(Nc3nccn4c(-c5ccc(OC(F)F)cc5)cnc34)cc2)C1 (stereo not drawn) [Example 64, 4-((2-aminoethoxy)methyl)-1-(4-((3-(4-(difluoromethoxy)phenyl)imidazo[1,2-a]pyrazin-8-yl)amino)phenyl)pyrrolidin-2-one] | 0.12 µM | 
COc1ccc(-c2cnc3c(Nc4ccc(S(C)(=O)=NCCCNC(=O)[C@H]5C[C@H](O)CN5)c(C)c4)nccn23)c(F)c1F (mixture of isomers) [Example 32, rac-(2R,4S)—N-(3-(((4-((3-(2,3-difluoro-4-methoxyphenyl)imidazo[1,2-a]pyrazin-8-yl)amino)-2-methylphenyl)(methyl)oxo)-l6-sulfaneylidene)amino)propyl)-4-hydroxypyrrolidine-2-carboxamide dihydrochloride] |  | IC90 [3]: 0.17 µM
COc1ccc(-c2cnc3c(Nc4ccc(S(=O)(=O)NCCOCCN)cc4)nccn23)c(F)c1F [Example 102, N-(2-(2-aminoethoxy)ethyl)-4-(3-(2,3-difluoro-4-methoxyphenyl)imidazo [1,2-a]pyrazin-8-yl)amino) benzenesulfonamide hydrochloride] |  | IC90 [2]: 0.39 µM
CCc1cc(Nc2nccn3c(-c4ccc(OC)c(F)c4F)cnc23)ccc1S(C)(=O)=NCCCN (stereo not drawn) [Example 70, N-[4-[N-(3-aminopropyl)-S-methyl-sulfonimidoyl]-3-ethyl-phenyl]-3-(2,3-difluoro-4-methoxy-phenyl)imidazo[1,2-a]pyrazin-8-amine; formic acid] |  | IC90 [2]: 0.19 µM
CCc1cc(Nc2nccn3c(-c4ccc(OC)c(F)c4F)cnc23)ccc1S(=O)(=O)N1CCN(C(=O)[C@@H]2CCN(C(=O)[C@@H]3C[C@@H](O)CN3)C2)CC1 [Example 111, (4-((4-((3-(2,3-difluoro-4-methoxyphenyl)imidazo[1,2-a]pyrazin-s-yl)amino)-2-ethylphenyl)sulfonyl)piperazin-1-yl)((R)-1-((2S,4R)-4-hydroxypyrrolidine-2-carbonyl)pyrrolidin-3-yl)methanone hydrochloride] | 0.87 µM | 
O=C1CCCN1c1ccc(Nc2nccn3c(-c4ccc(OC(F)F)cc4)cnc23)cc1Cl [Example 94, 1-(2-chloro-4-((3-(4-(difluoromethoxy)phenyl)imidazo[1,2-a]pyrazin-8-yl)amino)phenyl)pyrrolidin-2-one] | 0.12 µM | 
NCCCCC1CC(=O)N(c2ccc(Nc3nccn4c(-c5ccc(OC(F)F)cc5)cnc34)cc2)C1 (stereo not drawn) [Example 63, 4-(4-aminobutyl)-1-(4-((3-(4-(difluoromethoxy)phenyl)imidazo[1,2-a]pyrazin-8-yl)amino)phenyl)pyrrolidin-2-one] | 0.036 µM | 
COc1ccc(-c2cnc3c(Nc4ccc(S(C)(=O)=NCCCN)c(C)c4)nccn23)c(F)c1F (stereo not drawn) [Example 67, N-[4-[N-(3-aminopropyl)-S-methyl-sulfonimidoyl]-3-methyl-phenyl]-3-(2,3-difluoro-4-methoxy-phenyl)imidazo[1,2-a]pyrazin-8-amine; formic acid] |  | IC90 [2]: 0.12 µM
COc1ccc(-c2cnc3c(Nc4ccc(N5CCC(CN)CC5)cc4)nccn23)c(F)c1F [Example 112, N-(4-(4-(aminomethyl)piperidin-1-yl)phenyl)-3-(2,3-difluoro-4-methoxyphenyl)imidazo[1,2-a]pyrazin-8-amine hydrochloride] |  | IC90 [2]: 0.56 µM
COc1ccc(-c2cnc3c(Nc4ccc(NC(C)=O)cc4)nccn23)cc1 [Example 15, N-[4-[[3-(4-methoxyphenyl)imidazo[1,2-a]pyrazin-8-yl]amino]phenyl]acetamide] | 0.6 µM | 
Cc1cc(Nc2nccn3c(-c4ccc(Oc5ccccn5)c(F)c4F)cnc23)ccc1OCCOCCOCCN [Example 122, N-(4-(2-(2-(2-aminoethoxy)ethoxy)ethoxy)-3-methylphenyl)-3-(2,3-difluoro-4-(pyridin-2-yloxy)phenyl)imidazo[1,2-a]pyrazin-8-amine] | 0.65 µM | 
CN=S(C)(=O)c1ccc(Nc2nccn3c(-c4ccc(OC)c(F)c4F)cnc23)cc1C (stereo not drawn) [Example 66, 3-(2,3-difluoro-4-methoxyphenyl)-N-(4-(N,S-dimethylsulfonimidoyl)-3-methylphenyl)imidazo[1,2-a]pyrazin-8-amine] |  | IC90 [3]: 0.16 µM

Second part, led by results:

IC90 [1] | Compound | further results
0.37 µM | COc1ccc(-c2cnc3c(Nc4ccc(N5CCC(CN)CC5)c(C)c4)nccn23)c(F)c1F [Example 113, N-(4-(4-(aminomethyl)piperidin-1-yl)-3-methylphenyl)-3-(2,3-difluoro-4-methoxyphenyl) imidazo [1,2-a]pyrazin-8-amine hydrochloride] | 
0.33 µM | CCc1cc(Nc2nccn3c(-c4ccc(OC)c(F)c4F)cnc23)ccc1S(=O)(=O)N1CCN(C(=O)C[N+](C)(C)C)CC1 [Example 110, 2-(4-((4-((3-(2,3-difluoro-4-methoxyphenyl)imidazo[1,2-a]pyrazin-8-yl)amino)-2-ethylphenyl)sulfonyl)piperazin-1-yl)-N,N,N-trimethyl-2-oxoethan-1-aminium iodide] | 
0.5 µM | CN=S(=O)(c1ccc(Nc2nccn3c(-c4ccc(OC)c(F)c4F)cnc23)cc1C)N(C)C (stereo not drawn) [Example 31, 3-(2,3-difluoro-4-methoxy-phenyl)-N-[4-[S-(dimethylamino)-N-methyl-sulfonimidoyl]-3-methyl-phenyl]imidazo[1,2-a]pyrazin-8-amine] | 
0.14 µM | CN=S(C)(=O)c1ccc(Nc2nccn3c(-c4ccc(OC)c(F)c4F)cnc23)cc1F (stereo not drawn) [Example 26, (4-((3-(2,3-difluoro-4-methoxyphenyl)imidazol[1,2-a]pyrazin-4-yl)amino)-2-fluorophenyl)(methyl)(methylimino)-l6-sulfanone] | 
0.58 µM | CCc1cc(Nc2nccn3c(-c4ccc(OC)c(F)c4F)cnc23)ccc1C[N+](C)(C)C [Example 123, [4-[[3-(2,3-difluoro-4-methoxy-phenyl)imidazo[1,2-a]pyrazin-8-yl]amino]-2-ethyl-phenyl]methyl-trimethyl-ammonium] | 
0.5 µM | CCc1cc(Nc2nccn3c(-c4ccc(OC)c(F)c4F)cnc23)ccc1S(=O)(=O)N1CCNCC1 [Example 103, 3-(2,3-difluoro-4-methoxyphenyl)-N-(3-ethyl-4-(piperazin-1-ylsulfonyl)phenyl) imidazo[1,2-a]pyrazin-8-amine hydrochloride] | 
0.078 µM | COc1ccc(-c2cnc3c(Nc4ccc(S(=O)(=O)NCCOCCN)c(Cl)c4)nccn23)c(F)c1F [Example 101, N-(2-(2-aminoethoxy)ethyl)-2-chloro-4-((3-(2,3-difluoro-4-methoxyphenyl)imidazo[1,2-a]pyrazin-8-yl)amino) benzenesulfonamide hydrochloride] | 
0.15 µM | CN=S(=O)(c1ccc(Nc2nccn3c(-c4ccc(OC)c(F)c4F)cnc23)cc1)C1CCN(C(=O)[C@@H]2C[C@@H](O)CN2)CC1 (stereo partly drawn) [Example 74, (4-(4-((3-(2,3-difluoro-4-methoxyphenyl)imidazo[1,2-a]pyrazin-8-yl)amino)-N-methylphenylsulfonimidoyl)piperidin-1-yl)((2S,4R)-4-hydroxypyrrolidin-2-yl)methanone] | 
0.36 µM | COc1ccc(-c2cnc3c(Nc4ccc5c(c4)CCC5=O)nccn23)c(F)c1F [Example 125, 5-[[3-(2,3-difluoro-4-methoxy-phenyl)imidazo[1,2-a]pyrazin-8-yl]amino]indan-1-one] | 
0.28 µM | COc1ccc(-c2cnc3c(Nc4ccc(S(=O)(=O)NCCOCCN(C)C)c(C)c4)nccn23)c(F)c1F [Example 99, 4-((3-(2,3-difluoro-4-methoxyphenyl)imidazo[1,2-a]pyrazin-8-yl)amino)-N-(2-(2-(dimethylamino)ethoxy)ethyl)-methylbenzene sulfonamide] | 
0.2 µM | CCc1cc(Nc2nccn3c(-c4ccc(OC)c(F)c4F)cnc23)ccc1S(=O)(=O)N1CCN(C(=O)[C@@H]2CCNC2)CC1 [Example 107, (R)-(4-(4-((3-(2,3-difluoro-4-methoxyphenyl)imidazo[1,2-a]pyrazin-8-yl)amino)-2-ethylphenyl)sulfonyl) piperazin-1-yl)(pyrrolidin-3-yl)methanone hydrochloride] | 
0.81 µM | CCc1cc(Nc2nccn3c(-c4ccc(OC)c(F)c4F)cnc23)ccc1N1CCC(CN)CC1 [Example 114, N-(4-(4-(aminomethyl)piperidin-1-yl)-3-ethylphenyl)-3-(2,3-difluoro-4-methoxyphenyl) imidazo [1,2-a]pyrazin-8-amine hydrochloride] | 
0.076 µM | COc1ccc(-c2cnc3c(Nc4ccc(N5CCCC5=O)cc4)nccn23)cc1F [Example 48, 1-(4-((3-(3-fluoro-4-methoxyphenyl)imidazo[1,2-a]pyrazin-8-yl)amino)phenyl)pyrrolidin-2-one] | 
0.29 µM | COc1ccc(-c2cnc3c(Nc4ccc(S(=O)(=O)N5CCN(CCCN(C)C)CC5)c(C)c4)nccn23)c(F)c1F [Example 98] | 
